Experimental findings from US5492918A, “Use of substituted chromans, some of which are known, as medicaments, new active compounds and processes for their preparation” (Bayer Aktiengesellschaft, priority 1993, dated 1996) are described below.

One experiment deals with T1, HIV protease (Human immunodeficiency virus type 1 group M subtype B, UniProt P04585).
T1 construct: purified HIV protease
The experiment can be described thus: biochemical. As to conditions: for inhibition at 200 µg/mL: read-out: % Inhibition at 200 μg/ml. The protocol:
This is confirmed by an HIV-specific protease enzyme test.
The results of the examples shown below were determined by the HIV test system described in the following bibliographical references [cf. Hansen, J., Billich, S., Schulze, T., Sukrow, S. and Molling, K. (1988), EMBO Journal, Vol, 7, No. 6, pp. 1785-1791]: purified HIV protease was incubated with synthetic peptide which imitated a cleavage site in the Gag precursor protein and is an in vivo cleavage site of HIV protease. The resultant cleavage products of the synthetic peptide were analysed by means of reverse phase high performance liquid chromatography (RP-HPLC). The IC50 values indicated relate to the substance concentration which, under the abovementioned test conditions, causes a 50% inhibition of protease activity.

The test system of another experiment is HIV. Kind of experiment: HIV infection in cell culture: suppression of virus-induced syncytia in human blood lymphocytes (PBL). In kind it is cell-based. As to conditions: Human immunodeficiency virus 1, 72 h, 50% of virus-induced syncytia suppressed, day 3 to 6 after infection. The protocol:
The HIV test was carried out with slight modifications by the method of Pauwels et al,. [cf. Journal of Virological Methods 20, (1988) , 309-321].
Normal human blood lymphocytes (PBLs) were concentrated on Ficoll Hypaque and stimulated with phytohaemagglutinin (90 μg/ml) and interleukin-2 (40 U/ml) in RPMI 1640, 20% foetal calf serum. For infection with the infectious HIV, PBLs were pelleted and the cell pellet was then suspended in 1 ml of HIV virus adsorption solution and incubated at 37° C for 1 hour.
Alternatively, HIV-susceptible H9 cells were employed instead of normal human blood lymphocytes for testing of the antiviral effects of the compounds according to the invention.
The virus adsorption solution was centrifuged and the infected cell pellet was taken up in growth medium such that a concentration of 1×10^5 cells per ml was set. The cells infected in this way were pipetted at 1×10^4 cells/well into the wells of 96-well microtitre plates.
The first vertical row of the microtitre plate contained only growth medium and cells which had not been infected but otherwise treated exactly as described above (cell control). […]
The test batches were incubated at 37° C until the syncytia formation typical of HIV occurred in the untreated virus control (between day 3 and 6 after infection), which was then assessed microscopically. […]

[1] abbreviates: 200 μg/ml, purified HIV protease, synthetic peptide substrate, RP-HPLC.

Each structure is given as a SMILES string. Read-outs that look alike come from different tables or passages of the source.

On to `O=c1[nH]c2ccccc2n1C1CCN(CC2CCc3cccc(O)c3O2)CC1` (racemic) [Example 33, 8-Hydroxy-2-[4-(2-oxo-1-benzimidazolyl)piperidylmethyl]-chroman], for which, at HIV protease, the inhibition at 200 µg/mL came out at 99%. With `COc1cccc2c1OC(C(=O)N1CCC(NC(=O)Nc3ccccc3)CC1)CC2` (centres unmarked) [Example 1, 8-Methoxy-2-[4-(phenylaminocarbonyl-amino)piperidylcarbonyl]-chroman], the inhibition at 200 µg/mL at HIV protease (setting [1]) was found to be 99%.

For the compound `O=C(C1CCc2ccccc2O1)N1CCC(n2c(=O)[nH]c3ccccc32)CC1` (centres unmarked) [Example 21], at HIV protease (setting [1]), the inhibition at 200 µg/mL worked out at 65%. Consider `COc1cccc2c1OC(C(=O)N1CCC(n3c(=O)[nH]c4ccccc43)CC1)CC2` (centres unmarked) [Example 24], for which the inhibition at 200 µg/mL at HIV protease (setting [1]) was 99%. As for `COc1cccc2c1O[C@H](C(=O)N1CCC(n3c(=O)[nH]c4ccccc43)CC1)CC2` [Example 25], on HIV protease (setting [1]), the inhibition at 200 µg/mL worked out at 74%. As for `O=c1[nH]c2ccccc2n1C1CCN(CC2CCc3ccccc3O2)CC1` (centres unmarked) [Example 27], the inhibition at 200 µg/mL on HIV protease turned out to be 81%. `O=c1[nH]c2ccccc2n1C1CCN(C[C@@H]2CCc3ccccc3O2)CC1` [Example 28]: the inhibition at 200 µg/mL on HIV protease was found to be 94%. The term IC50 denotes the concentration needed to halve the response being measured. Consider `COc1cccc2c1OC(CN1CCC(n3c(=O)[nH]c4ccccc43)CC1)CC2` (centres unmarked) [Example 30], for which the IC50 against HIV protease (50% inhibition of protease activity, purified HIV protease, synthetic peptide substrate) amounted to 0.0002 µM; with HIV, 10 µM. Moreover, at HIV protease, the inhibition at 200 µg/mL worked out at 99%. Consider `COc1cccc2c1O[C@H](CN1CCC(n3c(=O)[nH]c4ccccc43)CC1)CC2` [Example 31], for which the IC50 with HIV amounted to 10 µM.
